Assay results from ChEMBL document CHEMBL1921773, “Carbamates of 4'-demethyl-4-deoxypodophyllotoxin: synthesis, cytotoxicity and cell cycle effects” (Bioorg Med Chem Lett, 2011).

Assays:
A549 [1] = experiment: Cytotoxicity against human A549 cells assessed as growth inhibition after 48 hrs by MTT assay; format: functional, cell-based; conditions: A549, 48 h
SiHa = experiment: Cytotoxicity against human SiHa cells assessed as growth inhibition after 48 hrs by MTT assay; format: functional, cell-based
HeLa = experiment: Cytotoxicity against human HeLa cells assessed as growth inhibition after 48 hrs by CCK-8 assay; format: functional, cell-based
HL-60 = experiment: Cytotoxicity against human HL60 cells assessed as growth inhibition after 48 hrs by CCK-8 assay; format: functional, cell-based; conditions: HL-60, 48 h
[2] = Octanol-water partition coefficient, log P of the compound; format: physicochemical
A549 [3] = experiment: Cell cycle arrest in human A549 cells assessed as accumulation of cells at G1 phase at 0.4 uM after 12 hrs by propidium iodide staining-based flow cytometry (reference value: 59.9%); format: functional
A549 [4] = experiment: Cell cycle arrest in human A549 cells assessed as accumulation of cells at S phase at 0.4 uM after 12 hrs by propidium iodide staining-based flow cytometry (reference value: 36.7%); format: functional
A549 [5] = experiment: Cell cycle arrest in human A549 cells assessed as accumulation of cells at G2/M phase at 0.4 uM after 12 hrs by propidium iodide staining-based flow cytometry (reference value: 3.2%); format: functional
A549 [6] = experiment: Cell cycle arrest in human A549 cells assessed as accumulation of cells at G1 phase at 0.4 uM after 24 hrs by propidium iodide staining-based flow cytometry (reference value: 59.9%); format: functional
A549 [7] = experiment: Cell cycle arrest in human A549 cells assessed as accumulation of cells at S phase at 0.4 uM after 24 hrs by propidium iodide staining-based flow cytometry (reference value: 36.7%); format: functional
A549 [8] = experiment: Cell cycle arrest in human A549 cells assessed as accumulation of cells at G2/M phase at 0.4 uM after 24 hrs by propidium iodide staining-based flow cytometry (reference value: 3.2%); format: functional
A549 [9] = experiment: Cell cycle arrest in human A549 cells assessed as accumulation of cells at G2/M phase at 0.4 uM by propidium iodide staining-based flow cytometry (reference value: 3.2%); format: functional; conditions: TDE = time-dependent effect

Compound | IC50 (A549 [1]) [nM] | IC50 (SiHa) [nM] | IC50 (HeLa) [nM] | IC50 (HL-60) [nM] | logP [2] | Activity (A549 [3]) [%] | Activity (A549 [4]) [%] | Activity (A549 [5]) [%] | Activity (A549 [6]) [%] | Activity (A549 [7]) [%] | Activity (A549 [8]) [%] | Activity (A549 [9])
COc1cc([C@@H]2c3cc4c(cc3C[C@H]3COC(=O)[C@@H]32)OCO4)cc(OC)c1OC(=O)N[C@@H](CC(C)C)C(N)=O | 9930 | 877 | 703 | 670 | 1.26 | – | – | – | – | – | – | –
CC[C@H](C)[C@H](NC(=O)Oc1c(OC)cc([C@@H]2c3cc4c(cc3C[C@H]3COC(=O)[C@@H]32)OCO4)cc1OC)C(N)=O | 1770 | 3700 | 5280 | 1020 | 1.36 | – | – | – | – | – | – | –
COc1cc([C@@H]2c3cc4c(cc3C[C@H]3COC(=O)[C@@H]32)OCO4)cc(OC)c1OC(=O)N[C@@H](Cc1ccccc1)C(=O)NC1CCCC1 | 2690 | 6870 | 3070 | 988 | 2.06 | – | – | – | – | – | – | –
COc1cc([C@@H]2c3cc4c(cc3C[C@H]3COC(=O)[C@@H]32)OCO4)cc(OC)c1O [4'-DEMETHYLDEOXYPODOPHYLLOTOXIN] | 1800 | 53300 | 43000 | 2960 | 2.92 | – | – | – | – | – | – | –
COc1cc([C@@H]2c3cc4c(cc3C[C@H]3COC(=O)[C@@H]32)OCO4)cc(OC)c1OC(=O)N[C@@H](C)C(N)=O | 4230 | 696 | 743 | 397 | -0.09 | – | – | – | – | – | – | –
COc1cc([C@@H]2c3cc4c(cc3C[C@H]3COC(=O)[C@@H]32)OCO4)cc(OC)c1OC(=O)N[C@H](C(=O)NC1CC1)C(C)C | 2310 | 432 | 433 | 213 | 1.45 | – | – | – | – | – | – | –
COc1cc([C@@H]2c3cc4c(cc3C[C@H]3COC(=O)[C@@H]32)OCO4)cc(OC)c1OC(=O)N[C@@H](Cc1ccccc1)C(N)=O | 3410 | 1070 | 1720 | 940 | 1.35 | – | – | – | – | – | – | –
COc1cc([C@@H]2c3cc4c(cc3C[C@H]3COC(=O)[C@@H]32)OCO4)cc(OC)c1OC(=O)N[C@H](Cc1ccccc1)C(N)=O | 1610 | 416 | 575 | 231 | 1.33 | – | – | – | – | – | – | –
COc1cc([C@@H]2c3cc4c(cc3C[C@H]3COC(=O)[C@@H]32)OCO4)cc(OC)c1OC(=O)N[C@@H](Cc1ccccc1)C(=O)NC1CC1 | 3370 | 1120 | 693 | 416 | 1.95 | – | – | – | – | – | – | –
COc1cc([C@@H]2c3cc4c(cc3C[C@H]3COC(=O)[C@@H]32)OCO4)cc(OC)c1OC(=O)N[C@H](C(=O)NC1CCCC1)C(C)C | 1910 | 14600 | 20300 | 1030 | 2.57 | – | – | – | – | – | – | –
COc1cc([C@@H]2c3cc4c(cc3C[C@H]3COC(=O)[C@@H]32)OCO4)cc(OC)c1OC [DESOXYPODOPHYLLOTOXIN] | 1380 | 6010 | 1980 | 470 | 3.16 | – | – | – | – | – | – | –
COc1cc([C@@H]2c3cc4c(cc3C[C@H]3COC(=O)[C@@H]32)OCO4)cc(OC)c1OC(=O)N[C@@H](CCSC)C(N)=O | 860 | 4320 | 2030 | 711 | 0.28 | – | – | – | – | – | – | –
COc1cc([C@@H]2c3cc4c(cc3C[C@H]3COC(=O)[C@@H]32)OCO4)cc(OC)c1OC(=O)N[C@H](C(N)=O)C(C)C | 1490 | 2890 | 3830 | 1030 | 0.84 | – | – | – | – | – | – | –
COc1cc([C@@H]2c3cc4c(cc3C[C@H]3COC(=O)[C@@H]32)OCO4)cc(OC)c1OC(=O)N[C@H](CCSC)C(N)=O | 887 | 614 | 528 | 89.3 | 0.26 | 22.6 | 49.7 | 27.7 | 11.2 | 30.7 | 58.1 | tde
COc1cc([C@@H]2c3cc4c(cc3[C@@H](O[C@@H]3O[C@@H]5CO[C@@H](C)O[C@H]5[C@H](O)[C@H]3O)[C@H]3COC(=O)[C@H]23)OCO4)cc(OC)c1O [ETOPOSIDE] | 24900 | 40400 | 2760 | 2850 | 0.69 | – | – | – | – | – | – | –
